{"source": "patent US20230310352A1", "about": "“NOVEL COMPOSITIONS AND METHODS FOR THE TREATMENT OF LUNG FIBROSIS” (LAURENT PHARMACEUTICALS INC., priority 2020, published 2023)", "key": {"[1]": {"system": "bleomycin-induced lung fibrosis", "experiment": "Intratracheal bleomycin mouse model of pulmonary fibrosis (28-day model)", "format": "in vivo, C57BL/6N mice", "conditions": "Day 28; oral once daily Day 7 to Day 28; fenretinide 10 mg/kg (as LAU-7b SDI), pirfenidone 100 mg/kg", "from_the_text": "Oral administration of a solid, amorphous dispersion formulation of fenretinide (LAU-7b SDI) was provided as a treatment for reduction of pulmonary fibrosis, in a mouse model of lung fibrosis induced via a single intratracheal administration of bleomycin, for 21 days. The LAU-7b SDI formulation was obtained by spray drying and contains fenretinide in amorphous form in a solid dispersion comprising a matrix polymer, based on the following formula: 40% fenretinide, 59.6% povidone (KOLLIDON® 30), 0.24% butylated hydroxyanisole (BHA) and 0.16% butylated hydroxytoluene (BHT).\nMale C57BL/6N mice from Charles River Laboratories, 10-12 weeks of age, weighing around 20-25 g, at the time of their enrolment, received 50 μL of bleomycin sulfate (2.0 mg/kg) by a single intratracheal instillation on Day 1 of the study to induce lung fibrosis. The sham group received an equivalent volume of 0.9% saline. On Day 7 postbleomycin instillation, the animals were randomized in groups of animals based on their body weight loss and enhanced pause airway resistance estimate (PenH value), while the sham group had 6 mice. Oral dosing by gavage (10 mL/kg) with the vehicle (sham and BLM control groups), the test articles (fenretinide 10 mg/kg), and the reference compound (pirfenidone 100 mg/kg) were administered once daily starting from Day 7 to Day 28. Two hours following the last dose on Day 28, all mice were sacrificed, the lungs of each mouse harvested, flushed with 0.9% NaCl and inflated with 10% neutral buffered formalin solution. After embedding and mounting of the lung tissue (transversal slices of 5 μm thickness), the histology slides were stained with hematoxylin/eosin for the Ashcroft score evaluation by a treatment-blinded pathologist and with Sirius red staining for automated fibrosis quantification (Biocelvia, France).\nThe key endpoints evaluated in this study were Ashcroft score, pulmonary foci and collagen content obtained by histological assessment of the lung tissue at the end of the study. Statistical analysis was made on normally distributed data by one-way ANOVA followed by multiple comparisons (Fisher's LSD post hoc test) to assess the difference between the groups, using Graph Pad Prism Software version 8.0 (San Diego, CA, USA). Differences were considered statistically significant when P values were p<0.05 (*), or p<0.01 (**) or p<0.001 (***).\nAshcroft scale for the evaluation of bleomycin-induced lung fibrosis is the analysis of stained histological samples by visual assessment. The Ashcroft score was assessed in lung tissue collected on Day 28 by treatment-blinded pathologist on H&E stained lung tissue histology slides (3 cross sections/animal) and using the modified Ashcroft scale. Briefly, each lung section was scanned at a magnification of x100 (H&E staining), read by a blinded examiner, and graded from 0 (normal lung) to 8 (total fibrotic obliteration of the field). Criteria for grading lung fibrosis in Ashcroft scale are as follows: Grade 0=normal lung; Grade 1=minimal fibrous thickening of alveolar or bronchiolar walls; Grade 3=moderate thickening of walls without obvious damage to lung architecture; Grade 5=increased fibrosis with definitive damage to lung structure and formation of fibrous bands or small fibrous masses; Grade 7=severe distortion of structure and large fibrous area; Grade 8=total fibrous obliteration of lung fields. The mean value of the grades obtained for each of the three sections was used as the Ashcroft score. Ashcroft score, using the modified scale, is a reliable and reproducible method of visual quantification of bleomycin induced lung fibrosis in H&E stained histological lung sections based on description of the general morphology of alveolar septa and lung structure. […]"}, "human lung microtissues": {"system": "human lung microtissues", "experiment": "Immunostaining of fibrotic markers (α-SMA, pro-collagen type 1) in TGF-β1 fibrosis-induced 3D lung microtissues", "format": "cell-based", "from_the_text": "To confirm the findings of the NHLF cells, the effects of fenretinide administration was observed on a newly developed in vitro model arrays of 3D microtissues that are suspended over multiple flexible micropillars. Progression of lung fibrosis is characterized by stiffening of the membranous tissue that makes up the alveolar air sacs, caused by the accumulation of highly contractile and collagen-producing myofibroblasts. To model the physio-pathological characteristics of lung fibrosis in vitro, different experimental systems have been developed. Planar 2D culture-based assays offer multiparameter readout of fibrotic cellular markers, but they have very limited capacity to measure or reproduce tissue mechanics. In order to recapitulate dynamic changes in tissue mechanics during fibrogenesis, a newly validated membranous human lung microtissues array was used, that models key biomechanical events occurred during lung fibrogenesis, including progressive stiffening and contraction of alveolar tissue, decline in alveolar tissue compliance, and traction force-induced bronchial dilation. This new 3D array of membranous lung microtissues model of lung fibrosis had been validated using two FDA-approved antifibrosis drugs, pirfenidone and nintedanib. This model was further extended to larger lung tissue arrays, to mimic the traction on alveoli as a model of bronchiectasis. (Asmani M. et al, 2018, Nature Com, 9:2066)\nThe lung microtissue chip system used is based on bio-MEMS technology that can assemble 3D cell-populated submillimeter microtissues in arrays of polydimethylsiloxane (PDMS) microwells. In each microwell, human lung fibroblasts or epithelial cells spontaneously contract and assemble the matrix proteins, such as collagen, into microtissues that anchor on top of an array of micropillars. The flexible micropillars serve as in situ force sensors that can report the contractile force generated by the tissue. […]\nThese observations are further described in Table 1, which presents fenretinide induced reduction of alpha smooth muscle actin (α-SMA) and pro-collagen expression and contractile forces induced by TGF-β1 in lung microtissue in preventative and therapeutic treatment measured as a percentage."}, "Cftr.KO mice": {"system": "Cftr.KO mice", "conditions": "cited from earlier work"}, "[2]": {"system": "Normal human lung fibroblast cells (NHLF cells, ATCC CRL-7000)", "experiment": "COL1A1 mRNA transcript by qRT-PCR after TGF-β1 exposure in NHLF", "format": "cell-based", "conditions": "TGF-β1 2 ng/mL + fenretinide 1, 2, 3, 4 μM, 3 days", "description": "NHLF cells were incubated for 3 days at 37° C. and treated with TGF-β1 (2 ng/mL) or TGF-β1 (2 ng/mL)+Fenretinide (1, 2, 3, 4 μM). At the end of the 3 day-treatment period, media was removed using a vacuum pump and total RNA was isolated using the TriReagent protocol (BioShop) and cDNA was obtained by reverse transcription using the SUPERSCRIPT® VILO®. COL1A1 transcript levels were determined by qRT-PCR using the Fast SyBR Master Mix and specific probes, and quantified following the ΔΔCT, normalized to PUM-1 expression as internal control. The experiments were performed in quadruplicate."}, "[3]": {"conditions": "preventative treatment, 2 μM, 6 days"}, "[4]": {"conditions": "preventative treatment, 4 μM, 6 days"}, "[5]": {"conditions": "preventative, co-administered with TGF-β1 5 ng/ml for 6 days, 2 μM and 4 μM"}, "[6]": {"conditions": "therapeutic treatment, added day 3 to day 6, 2 μM"}, "[7]": {"conditions": "therapeutic treatment, added day 3 to day 6, 4 μM"}}, "note": "“Also recorded” adds a separate entry of the source.", "data": [{"smiles": "CC1=C(/C=C/C(C)=C/C=C/C(C)=C/C(=O)Nc2ccc(O)cc2)C(C)(C)CCC1", "note": "[fenretinide, 4-hydroxyphenyl retinamide]", "values": [{"measurement": "Ashcroft score vs BLM control", "setting": "[1]", "value": "reduced significantly (p<0.05)"}, {"measurement": "percentage of collagen content in lung tissue, automated Sirius red analysis, vs BLM control", "setting": "[1]", "value": "significantly reduced"}, {"measurement": "percentage of pulmonary foci (fibrotic tissue), automated Sirius red analysis, vs BLM control", "setting": "[1]", "value": "significant reduction"}, {"measurement": "pro-collagen, reduction of expression induced by TGF-β1, percentage change", "setting": "human lung microtissues; [3]", "value": 88.0, "unit": "%"}, {"measurement": "α-SMA, reduction of expression induced by TGF-β1, percentage change", "setting": "human lung microtissues; [3]", "value": 45.0, "unit": "%"}, {"measurement": "pro-collagen, reduction of expression induced by TGF-β1, percentage change", "setting": "human lung microtissues; [4]", "value": 81.0, "unit": "%"}, {"measurement": "α-SMA, reduction of expression induced by TGF-β1, percentage change", "setting": "human lung microtissues; [4]", "value": 37.0, "unit": "%"}, {"measurement": "expression of pro-collagen type 1 (fluorescent intensity)", "setting": "human lung microtissues; [5]", "value": "increasingly inhibited by increasing fenretinide concentrations"}, {"measurement": "expression of α-SMA (fluorescent intensity)", "setting": "human lung microtissues; [5]", "value": "increasingly inhibited by increasing fenretinide concentrations"}, {"measurement": "pro-collagen, reduction of expression induced by TGF-β1, percentage change", "setting": "human lung microtissues; [6]", "value": 39.0, "unit": "%"}, {"measurement": "α-SMA, reduction of expression induced by TGF-β1, percentage change", "setting": "human lung microtissues; [6]", "value": 56.0, "unit": "%"}, {"measurement": "pro-collagen, reduction of expression induced by TGF-β1, percentage change", "setting": "human lung microtissues; [7]", "value": 58.0, "unit": "%"}, {"measurement": "α-SMA, reduction of expression induced by TGF-β1, percentage change", "setting": "human lung microtissues; [7]", "value": 72.0, "unit": "%"}, {"measurement": "levels of DHA and AA and sphingolipids imbalance in the lungs and plasma", "setting": "Cftr.KO mice", "value": "correct the levels"}, {"measurement": "lung inflammation", "setting": "Cftr.KO mice", "value": "reduction"}, {"measurement": "pulmonary load of Pseudomonas aeruginosa", "setting": "Cftr.KO mice", "value": "significant decrease"}, {"measurement": "induction of fibrotic marker COL1A1 gene expression (qRT-PCR)", "setting": "[2]", "value": "attenuates, in a dose-dependent manner; also recorded: dose-dependent attenuation"}]}]}
